Where a SMILES comes first, the peptide text is derived from it. The star is where a group is joined. Cbz = O=C(OCc1ccccc1)*; OtBu = CC(C)(C)O* A value given as a limit tells only on which side of the number the result lay.

For one test, the target named is chymotrypsin (Bos taurus, UniProt P00766). The settings on record: cited from earlier work.
Test [1] relates to hair follicles. As to the kind of experiment: Effects on subcutaneous tissue of the scalp (Example 10). The format is in vivo, ICR mice. The following applies: 1 mg/kg body weight/day injected daily for 5 days; examined 16 days later. As for the experimental part: Effects of PS1 on subcutaneous tissue of the scalp of 6-weeks old ICR mice from longitudinal and transverse sections were determined. PS1 dissolved in 50% propylene glycol, 10% DMSO, and 40% distilled water was injected daily for 5 days (1 mg/kg body weight/day) into the subcutaneous tissue, and the tissue examined histologically 16 days later.

Test [2] deals with hair follicles. As to the kind of experiment: Hair growth without depilation, shaved dorsal trunks (Example 15). In kind it is in vivo, C57 BL/6 mice. The following applies: for growth of new hair at the site of drug application: sixteenth day. How it is done: To confirm that the responses described above occurred in the absence of depilation and in other strains of mice, PS1 (0.5%) was applied topically once daily for 5 days to eight week old male C57 BL/6 mice in which the dorsal trunks were shaved but not depilated. For this experiment, the hair of 18 C57 BL/6 mice was carefully clipped the hair from the dorsal trunks. Three groups were tested. One group was treated with PS1 (0.5%) applied topically to the shaved area daily. In the second group, PS1 (1 mg/kg body weight/day) was injected locally into the subcutaneous tissue of the shaved area. These two groups were compared with the third group, which was untreated other than the hair on the dorsal trunk was similarly clipped. Blonde hair dye (extra strength bleach powder and 12% hydrogen peroxide in a 1 to 1 w/v ratio) was applied to the dorsal trunks of all mice on the seventh day in order to make it easier to detect new hair growth represented by appearance in the blonded areas of the natural black hair of the mice associated with induction of melanogenesis.

The subject of test [3] is hair follicles. Briefly: Stimulation of hair growth after wax hair stripping, subcutaneous injection (Example 9). In kind it is in vivo, Male Swiss ICR mice. As for the experimental part: Male Swiss ICR mice were first treated to remove hair from the scalp and dorsal regions as follows. Paraffin wax was liquefied by heating to 55° C. and the liquefied wax then applied by brush to the scalp and/or back (under anesthesia). The wax was allowed to solidify and then removed. The day following hair stripping, PSI (1 mg/kg/day) was injected subcutaneously three times a day for five days into the scalp and dorsal region. […] The mice were sacrificed on day 21 and histology was performed on the dermis of the scalp and of the dorsal region. […] Upon closer examination, it was observed that mice that had received only vehicle had quiescent hair follicles.

In the case of `CC[C@H](C)[C@H](NC(=O)[C@H]([C@@H](C)CC)N(C)C(C)=O)C(=O)N[C@H](C(=O)N[C@@H](CC(C)C)C(=O)[C@@]1(C)CO1)[C@@H](C)O` [Epoxomicin], on chymotrypsin, the “concentration up to which no inhibition appears” value was > 50 µM.
For `CC[C@H](C)[C@H](NC(=O)OCc1ccccc1)C(=O)N[C@@H](CCC(=O)OC(C)(C)C)C(=O)N[C@@H](C)C(=O)N[C@H](C=O)CC(C)C` [PSI, N-carbobenzoyl-Ile-Glu-(OtBu)-Ala-Leu-CHO] (Cbz-IE(OtBu)AL-aldehyde), in the test with hair follicles [1], the “numbers of hair follicles” value is on record as “numbers of hair follicles increased”; the “size of the follicle diameter and the root sheath diameter” value is “obvious increase in size of the follicle diameter and the root sheath diameter”. Also, the “growth of new hair at the site of drug application” value with hair follicles [2] (1 mg/kg body weight/day injected locally into the subcutaneous tissue) is on record as “more rapid growth of new hair”. The “growth of new hair at the site of drug application” value with hair follicles [2] (0.5% applied topically once daily for 5 days) was “more rapid growth of new hair”. In the test on hair follicles [2] (transverse sections of skin, only in the applied areas), the “diameter of the hair and of the inner and outer root sheath” value was “increased both the diameter of the hair and the diameter of the inner and outer root sheath”. For the same molecule, the “number of hair follicles versus control mice” value in the test on hair follicles [3] (1 mg/kg/day subcutaneously three times a day for five days, day 7 dermal punch biopsy) is reported as “large increase in the number of hair follicles”. Also, in the test on hair follicles [3] (1 mg/kg/day subcutaneously, by day 18), the hair growth rate entry is recorded as “hair growth rate greater than that of the mice in the control group”. Further, the “mature hair follicles in the lower region of the dermis” value with hair follicles [3] (1 mg/kg/day subcutaneously, day 21 histology) is “mature hair follicles in numbers much greater than in controls”.

The record behind these values is patent US6838436B1, “Inhibitors of proteasomal activity for stimulating bone growth” (Osteoscreen Inc., priority 1998, dated 2005).
